From EP2845588A1, “PIN1 inhibitors for use in the prevention and/or treatment of theileriosis, and related applications” (Centre National de la Recherche Scientifique (CNRS), priority 2013, dated 2015)

What was measured:
TpMD409 cells = assay: Soft agar colony forming assay, TpMD409; format: cell-based, bovine; conditions: colonies counted 10 days after plating
Protocol: (§1) All infected bovine cell lines used in this study were previously described: TBL3 cells were derived from in vitro infection of the spontaneous bovine-B lymphosarcoma cell line, BL3, with Hissar stock of T.annulata. The TpMD409 lymphocyte cell line are infected with T. parva. The culture conditions of these cell lines were previously described by Moreau et al., 1999. Cells were cultured in RPMI 1640 (Gibco-BRL, Paisley, UK), supplemented with 10% heat-inactivated Fetal calf serum, 4mM L-Glutamine, 25mM HEPES, 10µM β-mercaptoethanol and 100µg/ml penicillin/streptomycin in a humidified 5%CO2 atmosphere at 37°C. […] Cell numbers, as judged by Trypan Blue exclusion test, were determined by counting cells using a Countess automated cell counter (Invitrogen, CA, USA). […]
(§2) A two-layer soft agar culture system was used. […] Cultures were incubated in humidified 37°C incubators with an atmosphere of 5%CO2 in air, and control plates were monitored for growth using a microscope. At the time of maximum colony formation (10 days in culture), final colony numbers were counted manually after fixation a staining with 0.005% Crystal Violet (Sigma, Ref.: C3886).

[1] = test system: parasite-infected cells (Theileria annulata - TBL3); assay: Cell viability XTT assay, TBL3; format: cell-based, bovine
Protocol: (§3) All infected bovine cell lines used in this study were previously described: TBL3 cells were derived from in vitro infection of the spontaneous bovine-B lymphosarcoma cell line, BL3, with Hissar stock of T.annulata. The TpMD409 lymphocyte cell line are infected with T. parva. The culture conditions of these cell lines were previously described by Moreau et al., 1999. Cells were cultured in RPMI 1640 (Gibco-BRL, Paisley, UK), supplemented with 10% heat-inactivated Fetal calf serum, 4mM L-Glutamine, 25mM HEPES, 10µM β-mercaptoethanol and 100µg/ml penicillin/streptomycin in a humidified 5%CO2 atmosphere at 37°C. HepG2, NIH/3T3 and MEF cells lines were cultured in DMEM (Gibco-BRL, Paisley, UK), supplemented with 10% heat-inactivated Fetal calf serum, 4mM L-Glutamine, 25 mM HEPES, 10µM β-mercaptoethanol and 100µg/ml penicillin/streptomycin in a humidified 5% CO2 atmosphere at 37°C. Cell numbers, as judged by Trypan Blue exclusion test, were determined by counting cells using a Countess automated cell counter (Invitrogen, CA, USA). The anti-parasite drug Buparvaquone (BW720c) was used at 200ng/ml for 72 hours. BW720c has no effect on growth of uninfected cells. […]

[2] = test system: Parasite-infected TBL3 cells; assay: Cell proliferation, live cell count after trypan blue exclusion, TBL3; format: cell-based, bovine; conditions: live cells counted after trypan blue exclusion
Protocol: as §3

[3] = test system: non-parasitized BL3 cells; assay: Cell proliferation, live cell count after trypan blue exclusion, BL3; format: cell-based, bovine; conditions: BL3 / uninfected cells
Protocol: All infected bovine cell lines used in this study were previously described: TBL3 cells were derived from in vitro infection of the spontaneous bovine-B lymphosarcoma cell line, BL3, with Hissar stock of T.annulata. The TpMD409 lymphocyte cell line are infected with T. parva. The culture conditions of these cell lines were previously described by Moreau et al., 1999. Cells were cultured in RPMI 1640 (Gibco-BRL, Paisley, UK), supplemented with 10% heat-inactivated Fetal calf serum, 4mM L-Glutamine, 25mM HEPES, 10µM β-mercaptoethanol and 100µg/ml penicillin/streptomycin in a humidified 5%CO2 atmosphere at 37°C. HepG2, NIH/3T3 and MEF cells lines were cultured in DMEM (Gibco-BRL, Paisley, UK), supplemented with 10% heat-inactivated Fetal calf serum, 4mM L-Glutamine, 25 mM HEPES, 10µM β-mercaptoethanol and 100µg/ml penicillin/streptomycin in a humidified 5% CO2 atmosphere at 37°C. Cell numbers, as judged by Trypan Blue exclusion test, were determined by counting cells using a Countess automated cell counter (Invitrogen, CA, USA). The anti-parasite drug Buparvaquone (BW720c) was used at 200ng/ml for 72 hours. BW720c has no effect on growth of uninfected cells.
Cells were treated with either Juglone at 5 µM resuspended in Ethanol (Sigma, St Louis, MO, Ref.: H47003), or PiB at 1 µM resuspended in DMSO (Sigma, Ref.: B7688), or Dimethyloxalylglycine DMOG at 0.5 mM resuspended in DMSO (Tebu-bio, MO, USA).

[4] = test system: HIF1alpha transcriptional activity; assay: HRE-Luciferase reporter assay; format: cell-based, bovine
Protocol: Bovine cells were transfected with the 5xHRE (Staller et al., 2003) or CyclinD1- (Wulf et al., 2001) Luciferase reporters, using electroporation (Neon kit, Invitrogen, CA, USA). Mouse cells were transfected using Lipofectamine 2000 (Invitrogen, CA, USA). Transfections efficiencies were normalized to Renilla activity by co-transfection of a pRL-TK Renilla reporter plasmid (Promega, Ref.: E6241). Luciferase assays were performed 36h post-transfection using the Dual-Luciferase Reporter Assay System (Promega, Ref: E1980) in a microplate luminometer. Relative luminescence was represented as the ratio Firefly/Renilla luminescence, compared with the corresponding empty vector control. The 5xHRE promoter-Luciferase construct was obtained from P Staller (Biotech Research & Innovation Centre, Copenhagen, […]).

[5] = test system: Theileria parasites in TBL3-infected cells; assay: Parasites quantification by DAPI staining in infected cells; format: cell-based, T.annulata; conditions: 72h, Buparvaquone 200ng/ml, Juglone 5 µM, PiB 1 µM
Protocol: All infected bovine cell lines used in this study were previously described: TBL3 cells were derived from in vitro infection of the spontaneous bovine-B lymphosarcoma cell line, BL3, with Hissar stock of T.annulata. The TpMD409 lymphocyte cell line are infected with T. parva. The culture conditions of these cell lines were previously described by Moreau et al., 1999. Cells were cultured in RPMI 1640 (Gibco-BRL, Paisley, UK), supplemented with 10% heat-inactivated Fetal calf serum, 4mM L-Glutamine, 25mM HEPES, 10µM β-mercaptoethanol and 100µg/ml penicillin/streptomycin in a humidified 5%CO2 atmosphere at 37°C. HepG2, NIH/3T3 and MEF cells lines were cultured in DMEM (Gibco-BRL, Paisley, UK), supplemented with 10% heat-inactivated Fetal calf serum, 4mM L-Glutamine, 25 mM HEPES, 10µM β-mercaptoethanol and 100µg/ml penicillin/streptomycin in a humidified 5% CO2 atmosphere at 37°C. Cell numbers, as judged by Trypan Blue exclusion test, were determined by counting cells using a Countess automated cell counter (Invitrogen, CA, USA). The anti-parasite drug Buparvaquone (BW720c) was used at 200ng/ml for 72 hours. BW720c has no effect on growth of uninfected cells. […] Images of immunofluoresence staining were photographed with a fluorescent microscope (Leica Inverted 6000) and the number of parasites per cells was counted. […]

[6] = test system: FBW7 and c-Jun mRNA in TBL3 cells; assay: RT-qPCR of FBW7 and c-Jun mRNA in TBL3 cells; format: cell-based, bovine
Protocol: Total cellular RNAs were extracted using an RNeasy Plus Mini Kit (Qiagen, Hilden, Germany) and parasite RNAs were extracted using the classical Trizol Protocol. cDNA synthesis was performed with the Reverse Transcriptase Superscript III (Invitrogen, CA, USA).
Quantitative PCR amplification was performed in the ABI 7500 machine (Applied Biosystems, CA, USA) using the Sybr Green reagent (Applied Biosystems, CA, USA) using the primers listed in Table 5 below. The detection of a single product was verified by dissociation curve analysis. Relative quantities of mRNA were analyzed using the delta Ct method. The βactin qPCR was used for normalization. Table 5: qPCR primers

[7] = test system: Parasite-infected TBL3 cells; assay: Soft agar colony forming assay, TBL3; format: cell-based, bovine; conditions: colonies counted 10 days after plating
Protocol: as §1, §2

Row | Structure (SMILES) | transformed phenotype, colonies in soft agar (TpMD409 cells) | viability of parasite-infected cells ([1]; TBL3, 72h, XTT assay) | cell proliferation [2] | proliferation of non-parasitized cells [3] | HIF1alpha transcriptional activity [4] | parasites in TBL3 cells [5] | mRNA expression [6] | transformed phenotype, colonies in soft agar [7] | host cell viability ([1]; PiB, infected cell line not given)
1 | CC(C)(C)C1CCC(CC2=C(O)C(=O)c3ccccc3C2=O)CC1 (stereo not shown) [Buparvaquone, 2-((4-tert-butylcyclohexyl)methyl)-3-hydroxy-1,4-naphthoquinone] | reversed the transformed phenotype | decreased the viability | reduced | no effect | reduced | eliminate parasites | no effect | reversed the transformed phenotype | 
2 | CCOC(=O)CN1C(=O)c2ccc3c4c(ccc(c24)C1=O)C(=O)N(CC(=O)OCC)C3=O [PiB, benzo[Imn][3,8]phenanthroline-2,7-diacetic acid, 1,3,6,8-tetrahydro-1,3,6,8-tetraoxo-, diethyl ester] | reduced |  | affects TBL3 cell proliferation | no effect | reduced | eliminate parasites | no effect | reduced | reduced
